Key:
Format in all cases: in vivo, human
[1] = Skeletal muscle carnitine content (vastus lateralis biopsy, radioenzymatic)
Experimental: (§1) Seven healthy, non-vegetarian young men (age 22.4±1.5 yr, body mass 84.3±5.0 kg, body mass index […]) participated in the study. Each subject reported to the laboratory at 8 am on two occasions, separated by a 2-week “wash out” period, and voided their bladder. All subjects had abstained from carnitine containing foods, alcohol, and strenuous exercise for the previous 24 hours. On arrival, subjects were asked to rest in a supine position on a bed while a cannula was inserted retrogradely in to a superficial vein on the dorsal surface of the non-dominant hand. This hand was kept in a hand-warming unit (air temperature 50-55° C.) to arterialize the venous drainage of the hand, and a saline drip was attached to keep the cannula patent. A second cannula was placed in an antecubital vein in the non-dominant forearm for the infusion of insulin and glucose, and a third cannula was inserted into an antecubital vein in the opposite arm for infusion of L-carnitine.
(§2) On each experimental visit, a 6 hour (h) euglycaemic hyperinsulinaemic insulin (human Actrapid, Novo Nordisk, Denmark) clamp was performed, whilst maintaining a fasting blood glucose concentration of 4.47±0.01 mmol·l^−1. The insulin clamp began at t=0 at a rate of 105 mlU·m^−2·min^−1 with the aim of achieving steady state hyperinsulinaemic (˜150 mlU·l^−1) serum insulin concentration throughout each visit. Following a 1 hour equilibration period, a 5 hour intravenous infusion of 60 mM L-carnitine (CARN) (Lonza Ltd, Basel, Switzerland) or the equivalent volume of saline (CON) began, in randomised manner, in conjunction with the insulin clamp. At the onset of L-carnitine infusion a bolus dose of 15 mg·kg^−1 was administered over 10 minutes (min) in order to rapidly reach a supraphysiological plasma concentration of ˜500 μmol·l^−1. This was followed by a constant infusion at 10 mg·kg^−1·h^−1 for the next […] to maintain hypercarnitinaemia. At t=6 h, the insulin and L-carnitine infusions were stopped, whereas the glucose infusion was continued for approximately 80 min in order to stabilise blood glucose concentration. During this time, on each visit, subjects were fed the same standardised, carnitine-free meal.
(§3) Muscle biopsy samples were obtained from the vastus lateralis muscle immediately before and after each insulin clamp, and the following morning, using the percutaneous needle biopsy technique, and were snap frozen in liquid nitrogen less than 5 seconds after removal from the limb. One portion of the sample was subsequently freeze-dried and stored at −80° C., and the remainder was stored “wet” in liquid nitrogen. After removal of visible blood and connective tissue, the freeze-dried muscle samples were powdered, and free carnitine (FC), acetylcarnitine (AC), long-chain acylcarnitine (LCAC), and long-chain acyl-CoA (LCACoA) contents were determined radioenzymatically using a modified version of the radioenzymatic method of Cederblad et al (1990). Values were subsequently summed in order to calculate muscle TC. To reduce the variance in non-muscle constituents, muscle carnitine content was adjusted for the highest total creatine content from each pair of samples. Total creatine was calculated as the sum of free creatine and phosphocreatine content determined spectrophotometrically using the method of Harris et al (1974). Muscle glycogen, glucose-6-phosphate (G-6-P), and lactate content was also determined using a modified version of the spectrophotometric method of Harris et al (1974).
(§4) A two-way ANOVA (time and treatment effects; GraphPad Prism 4.02, GraphPad Software Inc, CA) was performed to locate differences in serum insulin, plasma carnitine, plasma FFA, and blood glucose concentrations as well as muscle PDC activity and carnitine, long-chain acyl-CoA, glycogen, lactate, and glucose-6-phosphate content. When a significant main effect was detected, data were further analysed with Student's paired t tests using the Bonferroni correction. […]

[2] = tested on: pyruvate dehydrogenase complex (PDC); experiment: Muscle pyruvate dehydrogenase complex (PDC) activity in biopsy samples; conditions: for post infusion PDC activity less than CON: CARN vs CON, P<0.05; for muscle PDC activity: post infusion/clamp
Experimental: as §1
(§5) On each experimental visit, a 6 hour (h) euglycaemic hyperinsulinaemic insulin (human Actrapid, Novo Nordisk, Denmark) clamp was performed, whilst maintaining a fasting blood glucose concentration of 4.47±0.01 mmol·l^−1. The insulin clamp began at t=0 at a rate of 105 mlU·m^−2·min^−1 with the aim of achieving steady state hyperinsulinaemic (˜150 mlU·l^−1) serum insulin concentration throughout each visit. […]
Muscle biopsy samples were obtained from the vastus lateralis muscle immediately before and after each insulin clamp, and the following morning, using the percutaneous needle biopsy technique, and were snap frozen in liquid nitrogen less than 5 seconds after removal from the limb. […] After removal of visible blood and connective tissue, the freeze-dried muscle samples were powdered, and free carnitine (FC), acetylcarnitine (AC), long-chain acylcarnitine (LCAC), and long-chain acyl-CoA (LCACoA) contents were determined radioenzymatically using a modified version of the radioenzymatic method of Cederblad et al (1990). […] Total creatine was calculated as the sum of free creatine and phosphocreatine content determined spectrophotometrically using the method of Harris et al (1974). Muscle glycogen, glucose-6-phosphate (G-6-P), and lactate content was also determined using a modified version of the spectrophotometric method of Harris et al (1974).
The remainder of the frozen muscle was used to determine PDC activity as previously described (Constantin-Teodosiu et al, 1991). Briefly, the activity of PDC in its dephosphorylated active form (PDCa) was assayed in a buffer containing NaF and dichloroacetate (DCA) and was expressed as rate of acetyl-CoA formation (mmol·min^1·(kg wet muscle)^−1 or nmol·min^1·(mg protein)^−1) at 37° C. Protein concentrations were determined using the method of Peterson (1977). […]

[3] = Plasma free fatty acid (FFA) concentration during L-carnitine infusion with insulin clamp; conditions: not significantly different from CON
Experimental: Seven healthy, non-vegetarian young men (age 22.4±1.5 yr, body mass 84.3±5.0 kg, body mass index […]) participated in the study. Each subject reported to the laboratory at 8 am on two occasions, separated by a 2-week “wash out” period, and voided their bladder. All subjects had abstained from carnitine containing foods, alcohol, and strenuous exercise for the previous 24 hours. On arrival, subjects were asked to rest in a supine position on a bed while a cannula was inserted retrogradely in to a superficial vein on the dorsal surface of the non-dominant hand. This hand was kept in a hand-warming unit (air temperature 50-55° C.) to arterialize the venous drainage of the hand, and a saline drip was attached to keep the cannula patent. […]
(§6) During each experimental visit, 1 ml of arterialized venous (a-v) blood was obtained every 5 min for monitoring blood glucose concentration (YSI 2300 STATplus, Yellow Springs Instruments, Ohio). […] These samples were then stored at −80° C. and analyzed at a later date for free fatty acid (FFA) concentration, using an enzymatic-colorimetric assay kit (NEFA C kit, WAKO Chemicals, Germany), and total carnitine (TC) concentration, using the radioenzymatic assay described previously by Cederblad et al (1982). […] Insulin was measured in these samples at a later date with a radioammunoassy kit (Coat-a-Count Insulin, DPC, Ca, USA). […]

[4] = Euglycaemic hyperinsulinaemic clamp with intravenous L-carnitine infusion: serum insulin and whole body glucose disposal; conditions: for whole body glucose disposal: mean±SEM
Experimental: as §1, §5, §6

[5] = Muscle metabolites (glycogen, lactate, glucose-6-phosphate, long-chain acyl-CoA) in biopsy samples; conditions: for muscle LCACoA content greater than CON: following morning (24 h), CARN vs CON, P<0.05
Experimental: as §1, §2, §3, §4

## C[N+](C)(C)C[C@H](O)CC(=O)[O-] [L-carnitine]
[1]; 24 h (following morning), not significantly different from pre infusion value
  skeletal muscle total carnitine (TC) content: 25.1±2.2 mmol·(kg dm)^−1
[1]; 24 h after CARN infusion visit
  muscle free carnitine (FC) overnight: retuning to basal
[1]; after 5 h L-carnitine infusion during hyperinsulinaemia, pre infusion 22.5±2.0, P<0.01
  skeletal muscle total carnitine (TC) content: 26.6±1.6 mmol·(kg dm)^−1
[1]; during the CARN infusion visit
  change in muscle acetyl carnitine (AC): no change
[1]; during the CARN infusion visit, P<0.05
  increase in muscle free carnitine (FC): 17%
[1]; following infusion visit
  skeletal muscle long chain acyl carnitine: unchanged
[1]; post vs pre 5 h L-carnitine infusion during hyperinsulinaemia
  increase in skeletal muscle TC: 15%
[2]
  post infusion PDC activity less than CON: 30%
[2]; listed as CARN
  post infusion PDC activity less than CON: 31%
[2]; pre 0.43±0.07, P<0.01
  muscle PDC activity: 0.74±0.06 mmol·min^−1·(kg wm)^−1
[2]; pre 4.2±1.6
  muscle PDC activity: 4.1±0.9 nmol·min^−1·(mg protein)^−1
[3]; by 24 h
  plasma FFA concentration: 0.19 ± 0.02 mmol/L
[3]; maintained during the insulin clamp, basal 0.30±0.04
  plasma FFA concentration: 0.046 ± 0.01 mmol/L
[4]; 80 min recovery period following the clamp
  whole body glucose disposal: 37.2 ± 3.5 g
[4]; over the 6 h clamp, n=7
  whole body glucose disposal: 316.8 ± 15.0 g
[4]; whole visit (CON approximately 330 g)
  total amount of glucose infused: ~350 g
[5]; 24 h after commencement of the insulin infusion, P<0.001 vs pre, P<0.01 vs CON
  muscle glycogen content: 736±24 mmol·(kg dm)^−1
[5]; assuming skeletal muscle contributes to 40% of total body mass
  difference in whole body muscle glycogen content between CON and CARN visits: 250 g
[5]; during each visit
  skeletal muscle glucose-6-phosphate content: No significant differences
[5]; following an overnight fast (24 h)
  increase in muscle glycogen content compared with CON: 30%
[5]; following morning (24 h) in the CARN visit
  muscle LCACoA content: returned to basal
[5]
  muscle LCACoA content greater than CON: 40%
[5]; listed as CARN
  muscle LCACoA content greater than CON: 39%
[5]; following the CARN infusion visit (CON increased 56%)
  skeletal muscle lactate content: unchanged
[5]; post infusion, 6 hour clamp
  decrease in muscle lactate content: 40%
[5]; post infusion, resting 487±23, P<0.01
  muscle glycogen content: 651±37 mmol·(kg dm)^−1

— patent US20090312237A1, “REGULATING FAT AND CARBOHYDRATE OXIDATION IN MUSCLE TISSUE COMPRISING CONTROLLING GARNITINE CONTENT IN MUSCLE” (THE UNIVERSITY OF NOTTINGHAM, priority 2006, published 2009)
